Measurements as given in patent US20240307409A1, “ARGININE METHYLTRANSFERASE INHIBITOR AND USE THEREOF” (Cytosinlab Therapeutics Co., Ltd., priority 2021, published 2024).

Key:
Assay type in all cases: biochemical
PRMT5 = PRMT5 (Homo sapiens, UniProt O14744); assay: PRMT panel selectivity test, PRMT5
Procedure: [The procedure below names another target; the source says it served here with some conditions changed.] (§1) PRMT1 enzyme activity test were performed in a buffer prepared on the same day 5 consisting of 10 mMTirs-HCl (pH=8.0), 0.01% Tween-20 and 1 mM DTT. The compounds were prepared to the highest inhibitor concentration ultimately required in the 100× reaction with 100% DMSO and then transferred to one well of a 384-well Echo plate (Echo-eligible 384-well polypropylene microplates 2.0, transparent, flat-bottomed) and sequentially diluted in the next well with a 3-fold dilution of 100% DMSO, and so on, with a total of 10 concentrations based on Precision. 100% DMSO was added to two empty wells to serve as control well without compound and control well without enzyme in the same 384-well Echo plate. 250 nL of compound was transferred from each well of the 384-well Echo plate to a 384-well assay plate (384-well polypropylene storage microplate) via the Echo 550 liquid processor. For wells with compounds and control well without compound, a mixture (15 uL) containing PRMT1 enzyme was added to the 384-well assay plate. For control wells without enzyme, the mixture containing the assay buffer (15 uL) was added instead. The compounds were allowed to incubate with PRMT1 for 15 minutes at room temperature, and then a mixture containing ^3H-SAM and peptide (10 uL) was added to start the reaction (final volume=25 uL). […] After 120 min of incubation, the assay was terminated by the addition of non-radiolabeled SAM (5 uL) to a final concentration of 125 uM, which diluted 3H-SAM to a level at which its incorporation into the peptide substrate was no longer detected. […] Plates were read on a microplate counter (MicroBeta2) to measure the amount of ^3H-labeled peptide bound to the surface of the detection plate, measured in counts per minute (cpm).
(§2) The raw data were copied from the Reader and the inhibition values were calculated in Excel by Equation (1), Equation (1): Inh %=(CPMmax−CPMcmpd)/(CPMmax−CPMmin)*100, wherein the Max signal was obtained from the enzyme-substrate interaction and the Min signal was obtained from the substrate. […]

PRMT1 = PRMT1 (Homo sapiens, UniProt Q99873); assay: PRMT1 enzyme activity test; conditions: 0.5 nM PRMT1, 3H-SAM, peptide
Chain of PRMT1 (Q99873 whole entry): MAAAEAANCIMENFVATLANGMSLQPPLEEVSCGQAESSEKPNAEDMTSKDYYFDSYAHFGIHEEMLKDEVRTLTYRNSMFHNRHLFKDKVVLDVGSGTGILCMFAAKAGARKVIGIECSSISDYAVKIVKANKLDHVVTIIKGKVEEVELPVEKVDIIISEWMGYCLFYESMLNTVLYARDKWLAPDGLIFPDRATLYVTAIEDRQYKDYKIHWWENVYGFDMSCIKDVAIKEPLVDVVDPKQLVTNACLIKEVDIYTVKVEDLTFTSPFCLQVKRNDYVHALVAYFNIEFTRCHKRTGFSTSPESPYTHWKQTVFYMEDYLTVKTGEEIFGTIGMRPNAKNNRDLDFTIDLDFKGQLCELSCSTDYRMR
Method in brief: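 Radiometric methylation assay: 0.5 nM PRMT1 preincubated 15 min at room temperature with compound (10-point 3-fold series, 1% DMSO) in pH 8.0 Tris buffer with Tween-20 and DTT. 0.25 uM ³H-SAM and 0.1 uM biotinylated peptide then reacted 120 min. Product captured on streptavidin FlashPlate and counted; IC50 from four-parameter fit of % inhibition.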

PRMT7 = target: T1, PRMT7 (Homo sapiens, UniProt Q9NVM4); assay: PRMT panel selectivity test, PRMT7
T1 sequence (Q9NVM4 1-692): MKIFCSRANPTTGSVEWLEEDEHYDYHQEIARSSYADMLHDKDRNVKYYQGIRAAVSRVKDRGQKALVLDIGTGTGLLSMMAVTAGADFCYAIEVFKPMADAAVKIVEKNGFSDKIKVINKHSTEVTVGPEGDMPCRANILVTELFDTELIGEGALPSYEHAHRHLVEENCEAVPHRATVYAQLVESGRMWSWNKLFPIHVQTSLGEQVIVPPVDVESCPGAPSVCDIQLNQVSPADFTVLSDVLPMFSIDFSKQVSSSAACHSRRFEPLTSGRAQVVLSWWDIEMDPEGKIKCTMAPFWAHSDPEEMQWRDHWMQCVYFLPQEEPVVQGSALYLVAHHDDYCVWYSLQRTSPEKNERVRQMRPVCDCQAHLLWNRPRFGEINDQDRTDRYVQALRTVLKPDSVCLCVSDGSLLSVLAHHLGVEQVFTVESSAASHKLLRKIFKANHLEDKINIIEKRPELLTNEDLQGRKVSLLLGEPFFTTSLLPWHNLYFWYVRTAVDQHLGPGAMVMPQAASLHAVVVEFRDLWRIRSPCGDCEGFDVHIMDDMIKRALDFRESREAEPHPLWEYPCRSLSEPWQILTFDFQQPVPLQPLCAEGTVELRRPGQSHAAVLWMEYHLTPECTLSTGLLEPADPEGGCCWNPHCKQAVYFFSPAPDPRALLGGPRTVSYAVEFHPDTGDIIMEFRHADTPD
Procedure: [The procedure below names another target; the source says it served here with some conditions changed.] as §1, §2

Chain of PRMT5 (O14744 whole entry, species assumed): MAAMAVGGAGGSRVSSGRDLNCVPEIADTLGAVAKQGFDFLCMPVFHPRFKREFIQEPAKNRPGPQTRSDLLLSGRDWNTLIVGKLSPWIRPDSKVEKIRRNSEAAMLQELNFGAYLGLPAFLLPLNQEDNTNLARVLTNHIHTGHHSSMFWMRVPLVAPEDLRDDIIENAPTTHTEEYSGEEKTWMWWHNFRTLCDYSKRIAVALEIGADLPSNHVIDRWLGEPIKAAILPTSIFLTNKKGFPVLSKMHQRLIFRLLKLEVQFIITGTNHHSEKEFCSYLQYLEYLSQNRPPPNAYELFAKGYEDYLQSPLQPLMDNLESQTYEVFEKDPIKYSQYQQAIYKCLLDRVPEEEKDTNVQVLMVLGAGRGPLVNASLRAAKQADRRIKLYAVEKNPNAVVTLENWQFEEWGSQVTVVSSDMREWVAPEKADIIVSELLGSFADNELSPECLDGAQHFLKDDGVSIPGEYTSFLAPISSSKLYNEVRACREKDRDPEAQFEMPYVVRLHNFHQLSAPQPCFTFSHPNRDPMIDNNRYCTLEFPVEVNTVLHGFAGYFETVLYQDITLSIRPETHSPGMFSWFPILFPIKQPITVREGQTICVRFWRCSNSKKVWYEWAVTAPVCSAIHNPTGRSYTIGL
Chain of PRMT5 (Q9BQA1 whole entry partner, species assumed): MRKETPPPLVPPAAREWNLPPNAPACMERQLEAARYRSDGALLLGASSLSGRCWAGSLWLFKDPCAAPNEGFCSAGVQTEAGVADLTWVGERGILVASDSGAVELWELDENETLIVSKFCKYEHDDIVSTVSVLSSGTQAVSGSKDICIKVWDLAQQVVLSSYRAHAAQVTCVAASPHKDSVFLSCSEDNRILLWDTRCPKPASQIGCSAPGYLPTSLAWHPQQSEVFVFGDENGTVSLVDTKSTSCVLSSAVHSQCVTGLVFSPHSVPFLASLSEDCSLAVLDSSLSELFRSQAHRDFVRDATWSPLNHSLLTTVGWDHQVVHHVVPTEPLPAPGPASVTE

Structure (SMILES) | IC50 (PRMT5) [µM] | IC50 (PRMT1) [µM] | IC50 (PRMT7) [µM]
CCOCC1(COCC)CCC(c2cccnc2CN(C)CCNC)CC1 [P207] | ≥ 10 | < 0.05 | ≥ 10
CNCCN(C)Cc1ncccc1N1CCc2ccccc2CC1 [P118] | ≥ 10 | < 0.05 | ≥ 10
CNCCN(C)Cc1ccccc1C1CCN(c2ccccc2)CC1 [P023] | ≥ 10 | < 0.05 | ≥ 10
